The source made the active and inactive calls. The rule behind the calls is not given here.
How the values were obtained:
Assay type in all cases: nucleic-acid assay
Nucleic Acid [1] = assay: Binding affinity to thiol-bearing RNA2 aptamer assessed as RNA2-compound conjugate formation at 1 uM by MALDI-MS 123 analysis
Nucleic Acid [2] = assay: Binding affinity to thiol-bearing RNA1 aptamer assessed as RNA1-compound conjugate formation at 1 uM after 1 hr by MALDI-MS analysis in presence of non-complementary DNA
Nucleic Acid [3] = assay: Binding affinity to thiol-bearing RNA1 aptamer assessed as RNA1-compound conjugate formation at 1 uM by MALDI-MS 123 analysis
Nucleic Acid [4] = assay: Binding affinity to RNA1-DNA hybrid assessed as inhibition of RNA1/DNA hybrid-compound conjugate formation at 1 uM after 1 hr by MALDI-MS analysis
Nucleic Acid [5] = assay: Binding affinity to thiol-bearing RNA1 aptamer assessed as RNA1-compound conjugate formation at 1 uM after 1 hr by MALDI-MS analysis in presence of non-complementary DNA and 1 uM iodoacetamide
Nucleic Acid [6] = assay: Covalent binding affinity to thiol-bearing RNA1 aptamer assessed as rate constant at 1 uM by MALDI-MS analysis
Nucleic Acid [7] = assay: Binding affinity to thiol-bearing RNA1 aptamer assessed as RNA1-compound conjugate formation at 1 uM after 1 hr by MALDI-MS analysis in presence of complementary DNA
Nucleic Acid [8] = assay: Binding affinity to thiol-bearing RNA2 aptamer assessed as RNA2-compound conjugate formation at 1 uM after 1 hr by MALDI-MS analysis in presence of complementary DNA

## N=C(N)NCCC[C@H](NC(=O)c1cccc2c(Nc3ccc(CNC(=O)CBr)cc3)cc(-c3ccccc3)nc12)C(N)=O
Nucleic Acid [1]
  Activity: Active
Nucleic Acid [2]
  Activity: inactive
Nucleic Acid [3]
  Activity: 90%
Nucleic Acid [4]
  Activity: inactive
Nucleic Acid [5]
  Activity: 90%
Nucleic Acid [6]
  K: 5.5 ×10⁻² /min

## CC(C)[C@H](NC(=O)CBr)C(=O)NCc1ccc(Nc2cc(-c3ccccc3)nc3c(C(=O)N[C@@H](CCCNC(=N)N)C(N)=O)cccc23)cc1
Nucleic Acid [1]
  Activity: Active
Nucleic Acid [7]
  Activity: inactive
Nucleic Acid [3]
  Activity: Active
Nucleic Acid [8]
  Activity: inactive

## CC(C)[C@H](NC(=O)[C@H](CO)NC(=O)CBr)C(=O)NCc1ccc(Nc2cc(-c3ccccc3)nc3c(C(=O)N[C@@H](CCCNC(=N)N)C(N)=O)cccc23)cc1
Nucleic Acid [1]
  Activity: Active
Nucleic Acid [7]
  Activity: inactive
Nucleic Acid [3]
  Activity: Active
Nucleic Acid [8]
  Activity: inactive
